The values that follow come from patent publication US20260356879A1, “CELASTROL DERIVATIVES” (Celloram Inc., priority 2022, published 2026).

One experiment deals with NLRP3 inflammasome. Nature of the experiment: IL-1β secretion in THP-1 macrophages, LPS + Nigericin. The class given is cell-based. The following applies: human THP-1 macrophages, FIG. 5C. The method, then: This example illustrates a comparative study of CLM-022 and MCC950 in inhibiting NLRP3 inflammasome activity in mouse and human macrophages.
To confirm the inhibitory effect of CLM-022 in human macrophages, THP-1 cells, a human leukemia monocytic cell line, were differentiated into macrophages using phorbol 12-myristate-13-acetate (PMA, 100 ng/ml) treatment for one day. The THP-1 macrophages were then treated with LPS (100 ng/ml) for 3 hours to induce the expression of inflammatory genes. Subsequently, the THP-1 cells were treated with CLM-022 or MCC950 in a dose range of 0-10 μM for 30 minutes. Then, to fully activate NLRP3-dependent inflammasome activity, Nigericin (10 μM) was added to the THP-1 cells for an additional 60 min.

A further experiment deals with THP-1 cells. Put plainly: THP-1 cell viability (inflammasome-induced pyroptosis), live/dead staining and flow cytometry. The following applies: THP-1, LPS and Nigericin, 0 μM to 10 μM; FIG. 7A. It is filed as cell-based, human. The source says: (§1) Pyroptosis, a pro-inflammatory form of cell death, is triggered by the activation of NLRP3 inflammasome components (GSDMD and Caspase-1), leading to the release of pro-inflammatory cytokines IL-1β and IL-18, as well as damage-associated molecular patterns (DAMPs). This process elicits a cascade of inflammatory responses, which can persist if dysregulated in affected tissues. Given the significant inhibitory potential of CLM-022 against NLRP3 inflammasome and IL-1β secretion, it was proposed that CLM-022 could effectively enhance cell viability by inhibiting pyroptosis in the context of inflammation and inflammasome activation. This example illustrates a comparative study of the abilities of CLM-022 and MCC950 to protect THP-1 cells from inflammasome-induced pyroptosis.
(§2) After LPS and Nigericin treatment, THP-1 cells were treated with either CLM-022 or MCC950 over a dosage range of 0 μM to 10 μM and cell viability was determined by impermeant live/dead staining dye and flow cytometric analysis. Additionally, NLRP3 inflammasome-induced cytotoxicity was investigated by measuring the level of LDH in the conditioned media after the CLM-022 and MCC950 treatments. Further, Western blotting of samples from the THP-1 cell viability assays was carried out to determine levels of the pyroptosis-mediating molecules, GSDMD and Caspase-1.
A general note: A flow cytometer gives signals particle by particle.

A further experiment deals with GSDMD and Caspase-1. Nature of the experiment: GSDMD and Caspase-1 cleavage in THP-1 cells (western blot). It is filed as cell-based. The following applies: Homo sapiens; THP-1, western blot; FIG. 7C; read-out: concentration inhibiting GSDMD and Caspase-1 cleavage.
From the text: as §1, §2
Background: In western blotting, separated proteins are transferred to a membrane and probed.

Experiment [1] deals with NF-kB target proteins iNOS, COX2, NLRP3, and IL-1β. Nature of the experiment: LPS-induced NF-kB target protein expression in BMDCs (western blot). It is filed as cell-based. The following applies: BMDCs, 10, 25, 50 nM, LPS (500 ng/ml), FIG. 1C. How it is done:
FIG. 1A depicts plots of relative NF-κB luciferase activity (RLU) for compound 22 and compound 1 (also referred to as “CLM-001”) assayed at 8-point concentrations (10 μM, 5 μM, […], 1.25 μM, 0.63 μM, 0.31 μM, 0.16 μM, […], and 0 μM). FIG. 1B depicts plots of the inhibitory concentrations (IC50) for compounds 22 (CLM-022) and 1 (CLM-001).
LPS-induced NF-kB target protein expression: Bone marrow-derived dendritic cells (BMDCs) were pre-treated with compound 22 or compound 1 at three concentrations (10 nM, 25 nM, 50 nM) for an hour and then treated overnight with LPS (500 ng/ml). The next day, the cells were subjected to western blotting for iNOS, COX2, NLRP3, and IL-1β.

In experiment [2] the test system is LPS-induced acute inflammation. Nature of the experiment: LPS-induced septic shock mouse model, cytokine expression in serum (ELISA) and colonic mucosa (qPCR). It is filed as in vivo. The method, then:
FIG. 4A, and FIG. 4B depict results showing that compound 22 (CLM-022) decreased the production of pro-inflammatory cytokines in the LPS-induced septic shock mouse model as described in Example 17. Compound 1 (CLM-001) and compound 22 (CLM-022) (1 mg/kg) injected intraperitoneally 1 hour prior to septic shock induction by administering sublethal dose of LPS (25 mg/kg, i.p.), mice were sacrificed 4 hours post LPS injection, and subjected to measurement of inflammatory cytokine expression. FIG. 4A depicts plot of data showing that the level of TNF-α decreased in the serum of compound 1 and compound 22 treated mice.
This example illustrates a study of the inhibitory function of an exemplary celastrol derivative of the present disclosure (compound 22) against LPS-induced acute inflammation in vivo, we set up LPS-induced septic shock mouse model (Yu et al., 2017) and detected the expression levels of inflammatory cytokines in colon.
Mice (n=3 per group) were administered intraperitoneally (i.p.) with control vehicle, compound 1 (1 mg/kg), or compound 22 (1 mg/kg). After 1 hour, mice were administered by i.p. injection a sublethal dose of LPS (25 mg/kg). Four hours later, the mice were subjected to blood collection and harvesting colonic mucosa by scraping colon. Cytokine expression was measured by conducting ELISA (Cat #900-T54, PeproTech) for TNF-α on blood serum samples and qPCR for the cytokines, IL-1 (TaqMan, Mm00434228), IL-6 (TaqMan, Mm00446190), TNF-α (TaqMan, 00443258), iNOS (TaqMan, 00440502), on colonic mucosa samples.

The structures appear in SMILES notation. A value given as a limit tells only on which side of the number the result lay.

Take `CC1=C(O)C(=O)C=C2C1=CC=C1[C@@]2(C)CC[C@@]2(C)[C@@H]3C[C@](C)(N(C)C(=O)C(=O)N(C)C)CC[C@]3(C)CC[C@]12C` [Compound 22, N′-[(2R,4aS,6aR,6aS,14aS,14bR)-10-hydroxy-2,4a,6a,6a,9,14a-hexamethyl-11-oxo-1,3,4,5,6,13,14,14b-octahydropicen-2-yl]-N,N,N′-trimethyl-oxamide]: the IC50 (as a rule, the point on the concentration scale where inhibition reaches its midpoint) in the experiment on NLRP3 inflammasome (LPS (100 ng/ml) + Nigericin (10 μM), 0-10 μM, read-out: IC50 for inhibition of IL-1β secretion) stood at 159 nM. The “inhibition of IL-1β secretion” value in the experiment on NLRP3 inflammasome (LPS + Nigericin) was “robustly inhibited IL-1β secretion”. In addition, the “increase in cell viability” value in the experiment with THP-1 cells is reported as “up to 60%”. For the same compound, the minimal effective concentration in the experiment with GSDMD and Caspase-1 is at most 0.1 µM. For the same compound, the “expression of LPS-induced NF-kB target proteins iNOS, COX2, NLRP3, and IL-1β” value in experiment [1] is “markedly inhibited expression of the LPS-induced NF-kB target proteins iNOS, COX2, NLRP3, and IL-1β in a dose-dependent fashion”. The “level of TNF-α in serum” value in experiment [2] (1 mg/kg i.p. 1 hour before LPS (25 mg/kg, i.p.), 4 hours post LPS, ELISA, FIG. 4A) is “decreased”. Moreover, the “gene expression of IL-1β, IL-6, TNF-α, and iNOS in the colon” value in experiment [2] (1 mg/kg i.p. 1 hour before LPS (25 mg/kg, i.p.), 4 hours post LPS, qPCR, FIG. 4B) was “markedly inhibited”. For the same compound, in experiment [2] (1 mg/kg i.p., LPS 25 mg/kg i.p., FIGS. 4A and 4B), the “inhibition of LPS-induced acute inflammation responses (IL-1, IL-6, TNF-α, iNOS in blood serum and colon mucosa)” value is “efficiently suppressed expression of an inflammatory mediator and the inflammatory cytokines including IL-1, IL-6, TNF-α, and INOS in the blood serum and colon mucosa to levels comparable to or lower than the levels observed in the group administered celastrol (Compound 1)”.
